According to patent publication US20060106102A1, “Napththalene derivatives which inhibit the cytokine or biological activity of microphage migration inhibitory factor (mif)” (priority 2002, published 2006):
Several values for one entry are separate records, joined by “and”; a condition that tells them apart may be missing. Equal values may be shown once. Read-outs that look alike come from different tables or passages of the source.

How the values were obtained:
[1] = test system: LPS-induced IL-1 release from peritoneal macrophages; test: LPS-induced interleukin 1 release from murine peritoneal macrophages, ELISA; format: cell-based, C57BL6/J mice
Experimental: C57BL6/J male mice were injected intraperitoneally with 2ml of thioglycollate. Five (5) days later peritoneal macrophages were collected by ravaging the peritoneum of anaesthetized mice with 3 ml of cold Hanks buffered saline solution. Cells from several mice were pooled, washed and re-suspended in DMEM supplemented with 5% FCS. Cells were plated in 96 well plastic tissue culture plates at 1×10^5 cells/well. Cells were treated with compound or vehicle for 1 hour in a 5% CO2 incubator at 37° C. Cells were then treated with LPS (10 ng/ml) and incubated for 24 hours. After 24 hours, 50 μl of supernatant from each well was carefully removed and transferred to ELISA plates. The concentration of interleukin 1 (IL-1 ) was measured by ELISA. The concentration of compound at which LPS-induced cytokine release was suppressed by 50% compared to vehicle-only-treated cells (EC50) was calculated using Prism® software. FIG. 13 and Table 8 provide the data for compound 6 tested in this assay.

[2] = test system: antigen-specific T cell activation (splenic T lymphocytes from mBSA-immunised mice); test: antigen-specific (mBSA) activation of splenic T lymphocytes in vitro, 3H-thymidine incorporation; format: cell-based, C57BL6/J mice; details: Mus musculus, T-cell, read-out: EC50 (T cell activation suppressed by 50% compared to vehicle-only-treated cells)
Experimental: After a further seven (7) days mice were killed and spleens collected aseptically into Hanks buffered saline solution (HBSS). A single cell suspension was prepared in Petri dishes by flushing DMEM through the organ using a 26G needle and 2 mL syringe. The resulting cell suspension was centrifuged for 5-7 minutes and supernatant discarded. Erythrocytes were lysed using a solution containing 0.579% NH4Cl, 0.000037% EDTA, and 0.1% NaHCO3 in a 37° C. water bath. Tubes were then filled with DMEM and centrifuged for 5-7 minutes. […] The specific stimulating antigen, mBSA, was then added at 10-50 μg/mL and plates incubated for 30 hours in a 37° C., 5% CO2 incubator. Tritiated^3H-thymidine was then added at a concentration of 0.5 μCi/well for a further 18 hours. Cells were harvested on a Packard cell harvester, and the harvested material added to 750 μL/tube scintillation fluid. Scintillation counts were read on a Wallac beta-emnission counter. […] Further compounds were also tested for their ability to inhibit antigen-specific T cell activation as a marker of the inhibition of the cytokine or biological activity of MIF using this assay.

[3] = test system: murine endotoxic shock model (LPS); test: murine endotoxic shock model, serum cytokines by ELISA; format: in vivo; details: mice
Experimental: The activity of 6,7-dihydroxynaphthalene-3-sulfonic acid (compound 6) was studied in the murine endotoxic shock model. This model has been previously shown to be dependent on MIF (35). […] Endotoxaemia was induced by intra-peritoneal injection of lipopolysaccharide (LPS) (15 mg/kg) in 400 μl saline. Mice were treated with a saline solution (control) only, a saline solution and LPS, or LPS and 6,7-dihydroxynaphthalene-2-sulfonic acid (compound 6) at a dose of 15 mg/kg body weight by intra-peritoneal injection at 24 hours, 12 hours and 1 hour before intra-peritoneal LPS injection. After 1.5 or 6 hours mice were humanely killed by CO2 inhalation then neck dislocation. Serum was obtained from blood obtained by cardiac puncture prior to death and measured for cytokines including interleukin 1 (IL-1) and interleukin 6 (IL-6) by ELISA. The production of IL-1 and IL-6 has been previously shown to be dependent on MIF (36).
The effect of compounds was further tested under a variety of conditions in animals exposed to endotoxic shock induced as above by the injection of 15 mg/kg LPS by intraperitoneal injection. In each case, compounds were administered by intraperitoneal injection at a dose of 15 mg/kg. Compound administration was associated with reductions in serum cytokine concentration under a variety of administration regimens.

[4] = test system: recombinant human macrophage migration inhibitory factor (MIF)-induced proliferation of S112 human dermal fibroblasts; test: MIF-induced proliferation of S112 human dermal fibroblasts, 3H-thymidine incorporation; format: cell-based
Experimental: The activity of each compound was studied in a bioassay utilising MIF-induced proliferation of human dermal fibroblasts. S112 human dermal fibroblasts were propagated in RPMI/10% foetal calf serum (FCS). Prior to experimentation, cells were seeded at 10^5 cells/ml in RPMI/0.1% BSA for 18 hours. At time point zero, culture medium was replaced with RPMI/10% FCS and treatments administered. Cells were treated with recombinant human macrophage migration inhibitory factor (MIF) 50 ng/ml (1.353×10^−9 M) and/or the compound at a 1 or 1000 molar ratio to the concentration of MIF. In some experiments the compound was combined with MIF at time point −30 minutes, prior to adding at time point zero. At time point 30 hours, cells were pulsed with […]. At time point 48 hours, cells were harvested using a semi-automated cell harvester. The radioactivity incorporated into DNA was determined by liquid scintillation counting, with results expressed as [^3H] thymidine incorporation. The proliferation of untreated cells was expressed as 100% and the effect of MIF and each compound expressed in relative %.
The activity of compound 5 was studied in a bioassay utilising MIF-induced proliferation of human dermal fibroblasts. S112 human dermal fibroblasts were propagated in RPMI/10% foetal calf serum (FCS). Prior to experimentation, cells were seeded at 10^5 cells/ml in RPMII/0.1% BSA for 18 hours. At time point zero, culture medium was replaced with RPMI/10% FCS and treatments administered. Cells were treated with recombinant human macrophage migration inhibitory factor (MIF) 50 ng/ml and/or compound 5 at a 1-1000 molar ratio to the concentration of MIF. At a time point 30 hours later, cells were pulsed with 1 μCi/well of ^3H-thymidine. At a time point 48 hours after commencement of the experiment, cells were harvested using a semi-automated cell harvester. The radioactivity incorporated into DNA was determined by liquid scintillation counting, with results expressed as [^3H] thymidine incorporation.

`O=S(=O)(O)c1ccc2cc(O)c(O)cc2c1` [Compound 6, 6,7-dihydroxynaphthalene-2-sulfonic acid] was tested, and the “inhibition of macrophage IL-1 release, dose-response (FIG. 13)” value ([1]; LPS 10 ng/ml, p<0.02) was “marked and statistically significant inhibition of macrophage IL-1 release”, the EC50 ([1]; Mus musculus, Peritoneal macrophage, [LPS] 10 ng/mL, 24 hours, read-out: EC50 (LPS-induced IL-1 release suppressed by 50%)) was 27 µM and the EC50 ([2]; mBSA 10 μg/ml) was 21.8 µM. The EC50 ([2]; mBSA 50 μg/ml) was 104 µM, the “Serum TNF, LPS plus compound” value ([3]; compound 15 mg/kg i.p. at −18 h before LPS 15 mg/kg i.p.) was 3970 ± 2565 pg/mL and the “Serum IL-6, LPS plus compound” value ([3]; compound 15 mg/kg i.p. at −24 h, −1 h before LPS 15 mg/kg i.p.) was 150 ± 19 ng/mL and 104 ± 11 ng/mL. The “serum IL-1, LPS plus compound” value ([3]; compound 15 mg/kg i.p. at −24 h, −12 h, −1 h before LPS 15 mg/kg i.p.) was 257 ± 70 ng/mL, the “effect on proliferation of S112 cells treated with recombinant human MIF (FIG. 12)” value ([4]; 0.013-1.3 μM, six separate experiments) was “marked inhibitory effect” and the inhibition at 0.13 µM ([4]; Homo sapiens, Fibroblast, concentration 0.13 μM, rhMIF 50 ng/ml, S112 cells, read-out: % inhibition of proliferation compared to vehicle plus rhMIF-treated cells) was 47%.
